Values quoted from earlier work as cited in patent US6660871B2, “Synthesis of 4H-chromene derivatives” (Thomas Jefferson Unversity, priority 2001, dated 2003).

Test system: tumor cells

## CCOC(=O)C1=C(N)Oc2ccc(Br)cc2C1C(C#N)C(=O)OCC (stereo not shown) [HA14-1]
  apoptosis of tumor cells: induces apoptosis of tumor cells
